Results on 14 compounds are retold here after patent US7160888B2, “[1,8]naphthyridin-2-ones and related compounds for the treatment of schizophrenia” (Warner Lambert Company LLC, priority 2003, dated 2007).

In this test the target is D2 receptor (Homo sapiens, UniProt P14416). As to the kind of experiment: [3H]Thymidine uptake assay for D2 intrinsic activity. The format is cell-based. The following applies: test compound 1 μM, 1 μM Quinpirole = 100% intrinsic activity.
D2 receptor, sequence (P14416 whole entry): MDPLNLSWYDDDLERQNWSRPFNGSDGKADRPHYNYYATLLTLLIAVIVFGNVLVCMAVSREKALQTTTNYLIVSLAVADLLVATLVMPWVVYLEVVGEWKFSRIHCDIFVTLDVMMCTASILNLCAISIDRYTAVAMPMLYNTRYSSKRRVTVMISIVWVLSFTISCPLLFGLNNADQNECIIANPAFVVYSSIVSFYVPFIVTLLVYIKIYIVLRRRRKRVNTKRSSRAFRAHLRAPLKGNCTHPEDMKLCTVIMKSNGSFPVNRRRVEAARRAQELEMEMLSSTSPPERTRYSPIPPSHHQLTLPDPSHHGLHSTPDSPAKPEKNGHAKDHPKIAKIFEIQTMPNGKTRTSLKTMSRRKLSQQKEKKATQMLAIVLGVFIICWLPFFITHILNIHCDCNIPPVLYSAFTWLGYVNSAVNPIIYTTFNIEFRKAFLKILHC

On to `O=C1CCc2ccc(OCCCCN3CCN(c4cccc5cccc(Cl)c45)CC3)nc2N1` [Example A77, 7-{4-[4-(8-Chloro-naphthalen-1-yl)-piperazin-1-yl]-butoxy}-3,4-dihydro-1H-[1,8]naphthyridin-2-one], for which the Emax at 1 µM (Table 1) stood at 36%.

`CC(=O)c1ccc2cccc(N3CCN(CCCCOc4ccc5c(n4)NC(=O)CC5)CC3)c2c1` [Example A78, 7-{4-[4-(7-Acetyl-naphthalen-1-yl)-piperazin-1-yl]-butoxy}-3,4-dihydro-1H-[1,8]naphthyridin-2-one] displayed an Emax at 1 µM (Table 1) of 24%.

With `CC(=O)c1ccc2c(N3CCN(CCCCOc4ccc5c(n4)NC(=O)CC5)CC3)cccc2c1` [Example A79, 7-{4-[4-(6-Acetyl-napthalen-1-yl)-piperazin-1-yl]-butoxy}-3,4-dihydro-1H-[1,8]naphthyridin-2-one], the Emax at 1 µM (Table 1) was 24%.

Turning to `CC(=O)c1cccc2c(N3CCN(CCCCOc4ccc5c(n4)NC(=O)CC5)CC3)cccc12` [Example A80, 7-{4-[4-(5-Acetyl-naphthalen-1-yl)-piperazin-1-yl]-butoxy}-3,4-dihydro-1H-[1,8]naphthyridin-2-one], under “Table 1”, the Emax at 1 µM was 30%.

`CC(=O)c1ccc(N2CCN(CCCCOc3ccc4c(n3)NC(=O)CC4)CC2)c2ccccc12` [Example A81, 7-{4-[4-(4-Acetyl-naphthalen-1-yl)-piperazin-1-yl]-butoxy}-3,4-dihydro-1H-[1,8]naphthyridin-2-one]: the maximal effect (Emax) at 1 µM (Table 1) stood at 4%.

`CC(=O)c1ccc2ccccc2c1N1CCN(CCCCOc2ccc3c(n2)NC(=O)CC3)CC1` [Example A82, 7-{4-[4-(2-Acetyl-naphthalen-1-yl)-piperazin-1-yl]-butoxy}-3,4-dihydro-1H-[1,8]naphthyridin-2-one] showed a maximal effect (Emax) at 1 µM (Table 1) of 27%.

As for `N#Cc1ccc2cccc(N3CCN(CCCCOc4ccc5c(n4)NC(=O)CC5)CC3)c2c1` [Example A83, 8-{4-[4-(7-Oxo-5,6,7,8-tetrahydro-[1,8]naphthyridin-2-yloxy)-butyl]-piperazin-1-yl}-naphthalene-2-carbonitrile], under “Table 1”, the Emax at 1 µM came to 36%.

Compound `CC(=O)Nc1ccc2cccc(N3CCN(CCCCOc4ccc5c(n4)NC(=O)CC5)CC3)c2c1` [Example A84, N-(8-{4-[4-(7-Oxo-5,6,7,8-tetrahydro-[1,8]naphthyridin-2-yloxy)-butyl]-piperazin-1-yl}-naphthalen-2-yl)-acetamide] showed an Emax at 1 µM (Table 1) of 11%.

Regarding `O=c1ccc2ccc(OCCCCN3CCN(c4cccc5c4OCCC5)CC3)nc2[nH]1` [Example B1′, 7-[4-(4-Chroman-8-yl-piperazin-1-yl)-butoxy]-1H-[1,8]naphthyridin-2-one], the Emax at 1 µM (Table 2) came out at 22%.

With `O=c1ccc2ccc(OCCCCN3CCN(c4cccc(C(F)(F)F)c4Cl)CC3)nc2[nH]1` [Example B2, 7-{4-[4-(2-Chloro-3-trifluoromethyl-phenyl)-piperazin-1-yl]-butoxy}-1H-[1,8]naphthyridin-2-one], for the setting “Table 1”, the Emax at 1 µM turned out to be 22%.

`CC1(C)C=Cc2cccc(N3CCN(CCCCOc4ccc5ccc(=O)[nH]c5n4)CC3)c2O1` [Example B2′, 7-{4-[4-(2,2-Dimethyl-2H-chromen-8-yl)-piperazin-1-yl]-butoxy}-1H-[1,8]naphthyridin-2-one]: for the setting “Table 2”, the maximal response (Emax) at 1 µM stood at 33%.

Turning to `CC(=O)c1c(Cl)cccc1N1CCN(CCCCOc2ccc3ccc(=O)[nH]c3n2)CC1` [Example B3, 7-{4-[4-(2-Acetyl-3-chloro-phenyl)-piperazin-1-yl]-butoxy}-1H-[1,8]naphthyridin-2-one], the Emax at 1 µM (Table 1) is 8%.

For the setting “Table 2”, `CC1(C)CCc2cccc(N3CCN(CCCCOc4ccc5ccc(=O)[nH]c5n4)CC3)c2O1` [Example B3′, 7-{4-[4-(2,2-Dimethyl-chroman-8-yl)-piperazin-1-yl]-butoxy}-1H-[1,8]naphthyridin-2-one] yielded an Emax at 1 µM of 50%.

Under “Table 1”, `CCc1c(Cl)cccc1N1CCN(CCCCOc2ccc3ccc(=O)[nH]c3n2)CC1` [Example B4, 7-{4-[4-(3-Chloro-2-ethyl-phenyl)-piperazin-1-yl]-butoxy}-1H-[1,8]naphthyridin-2-one] had an Emax at 1 µM of 22%.

Broadly, the Emax is the size of the effect at its maximum, as opposed to the concentration needed.
